# Reference: ChEMBL document CHEMBL4373717, “Coumarin-containing hybrids and their anticancer activities” (Eur J Med Chem, 2019)
# Columns and labels:
# BHK-21 = test: Cytotoxicity against BHK21 cells assessed as reduction in cell viability after 48 hrs by SRB assay; type: cell-based; conditions: Mesocricetus auratus, BHK-21, 48 h
# NCI-H157 = test: Cytotoxicity against human NCI-H157 cells assessed as reduction in cell viability after 48 hrs by SRB assay; type: functional, cell-based; conditions: NCI-H157, 48 h
# MCF7 [1] = test: Cytotoxicity against human MCF7 cells assessed as reduction in cell viability by SRB assay; type: functional, cell-based
# A549 [2] = test: Cytotoxicity against human A549 cells assessed as reduction in cell viability by SRB assay; type: functional, cell-based
# [3] = Cytotoxicity against human MCF7/DX cells assessed as reduction in cell viability by SRB assay; type: functional, cell-based
# DU-145 = test: Cytotoxicity against human DU145 cells assessed as reduction in cell viability by SRB assay; type: functional, cell-based
# HeLa [4] = test: Cytotoxicity against human HeLa cells assessed as reduction in cell viability by SRB assay; type: functional, cell-based
# HepG2 [5] = test: Cytotoxicity against human HepG2 cells assessed as reduction in cell viability by SRB assay; type: functional, cell-based
# SK-OV-3 = test: Cytotoxicity against human SKOV3 cells assessed as reduction in cell viability by SRB assay; type: functional, cell-based
# HepG2 [6] = test: Cytotoxicity against human HepG2 cells assessed as reduction in cell viability; type: functional, cell-based
# DLD-1 = test: Cytotoxicity against human DLD1 cells assessed as reduction in cell viability; type: functional, cell-based
# HeLa [7] = test: Antiproliferative activity against human HeLa cells by MTT assay; type: functional, cell-based
# MCF7 [8] = test: Cytotoxicity against human MCF7 cells assessed as reduction in cell viability after 68 hrs by MTT assay; type: functional, cell-based; conditions: MCF7, 68 h
# A549 [9] = test: Cytotoxicity against human A549 cells assessed as reduction in cell viability after 68 hrs by MTT assay; type: functional, cell-based; conditions: A549, 68 h
# [10] = molecular target: RAC-alpha serine/threonine-protein kinase (Homo sapiens, UniProt P31749); test: Inhibition of AKT phosphorylation in human K562 cells; type: cell-based
# Sequence of RAC-alpha serine/threonine-protein kinase (P31749 whole entry): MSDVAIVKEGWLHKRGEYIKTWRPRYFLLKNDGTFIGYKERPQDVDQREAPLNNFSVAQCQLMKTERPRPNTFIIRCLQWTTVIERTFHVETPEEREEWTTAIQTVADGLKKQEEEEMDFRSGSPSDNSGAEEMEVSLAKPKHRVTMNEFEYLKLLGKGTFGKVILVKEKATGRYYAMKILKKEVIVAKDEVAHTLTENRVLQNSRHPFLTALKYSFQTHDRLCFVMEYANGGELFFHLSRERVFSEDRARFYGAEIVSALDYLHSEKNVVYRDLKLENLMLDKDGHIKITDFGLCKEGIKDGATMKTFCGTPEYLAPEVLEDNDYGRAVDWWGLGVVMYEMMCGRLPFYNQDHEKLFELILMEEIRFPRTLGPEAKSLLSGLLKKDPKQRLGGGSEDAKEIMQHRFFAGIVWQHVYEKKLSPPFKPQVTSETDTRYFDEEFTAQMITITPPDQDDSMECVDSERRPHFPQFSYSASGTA
# HeLa [11] = test: Cytotoxicity against human HeLa cells assessed as reduction in cell viability after 68 hrs by MTT assay; type: functional, cell-based
# K562 [12] = test: Cytotoxicity against human K562 cells assessed as reduction in cell viability after 68 hrs by MTT assay; type: functional, cell-based; conditions: K562, 68 h
# K562 [13] = test: Anticancer activity against human K562 cells by MTT assay; type: functional, cell-based
# MDA-MB-231 = test: Anticancer activity against human MDA-MB-231 cells by MTT assay; type: functional, cell-based
# HeLa [14] = test: Anticancer activity against human HeLa cells by MTT assay; type: functional, cell-based
# A549 [15] = test: Anticancer activity against human A549 cells by MTT assay; type: functional, cell-based
structure (smiles),measurement,setting,value
O=c1oc2ccccc2cc1-c1nnc2n1N=C(c1ccc([N+](=O)[O-])cc1)CS2,IC50,BHK-21,1.01 to 5.72 µM
same,IC50,NCI-H157,1.01 to 5.72 µM
O=c1oc2ccccc2cc1-c1nnc2n1N=C(c1ccc(F)cc1)CS2,IC50,BHK-21,1.01 to 5.72 µM
same,IC50,NCI-H157,1.01 to 5.72 µM
O=c1oc2ccccc2cc1-c1nnc2n1N=C(c1ccc(Cl)cc1)CS2,IC50,BHK-21,1.01 to 5.72 µM
same,IC50,NCI-H157,1.01 to 5.72 µM
Cc1cc(=O)oc2cc(OCCOCCN3C(=O)C(=O)c4ccccc43)ccc12,IC50,MCF7 [1],10.3 to 50 µM
same,IC50,A549 [2],10.3 to 50 µM
same,IC50,[3],10.3 to 50 µM
same,IC50,DU-145,10.3 to 50 µM
same,IC50,HeLa [4],10.3 to 50 µM
same,IC50,HepG2 [5],10.3 to 50 µM
same,IC50,SK-OV-3,10.3 to 50 µM
Cc1ccc2c(c1)C(=O)C(=O)N2CCOCCOc1ccc2c(C)cc(=O)oc2c1,IC50,MCF7 [1],10.3 to 50 µM
same,IC50,A549 [2],10.3 to 50 µM
same,IC50,[3],10.3 to 50 µM
same,IC50,DU-145,10.3 to 50 µM
same,IC50,HeLa [4],10.3 to 50 µM
same,IC50,HepG2 [5],10.3 to 50 µM
same,IC50,SK-OV-3,10.3 to 50 µM
Cc1cc(=O)oc2cc(OCCOCCN3C(=O)/C(=N\O)c4cc(F)ccc43)ccc12,IC50,MCF7 [1],10.3 to 50 µM
same,IC50,A549 [2],10.3 to 50 µM
same,IC50,[3],10.3 to 50 µM
same,IC50,DU-145,10.3 to 50 µM
same,IC50,HeLa [4],10.3 to 50 µM
same,IC50,HepG2 [5],10.3 to 50 µM
same,IC50,SK-OV-3,10.3 to 50 µM
O=C(c1cnc(Nc2ccc(F)cc2)s1)c1cc2ccccc2oc1=O,IC50,HepG2 [6],5.66 to 100 µg/mL
same,IC50,DLD-1,5.66 to 100 µg/mL
O=C(c1cnc(Nc2ccc(Br)cc2)s1)c1cc2ccccc2oc1=O,IC50,HepG2 [6],5.66 to 100 µg/mL
same,IC50,DLD-1,5.66 to 100 µg/mL
O=c1oc2ccccc2cc1C1=Nn2c(nnc2-c2cc3ccccc3oc2=O)SC1,IC50,BHK-21,1.01 to 5.72 µM
same,IC50,NCI-H157,1.01 to 5.72 µM
CCNc1ncc(C(=O)c2cc3ccccc3oc2=O)s1,IC50,HepG2 [6],5.66 to 100 µg/mL
same,IC50,DLD-1,5.66 to 100 µg/mL
Cc1ccc(C2=Nn3c(nnc3-c3cc4ccccc4oc3=O)SC2)cc1,IC50,BHK-21,1.01 to 5.72 µM
same,IC50,NCI-H157,1.01 to 5.72 µM
CCOC(=O)c1sc(N/N=C(\C)c2cc3cc(Cl)ccc3oc2=O)nc1C,IC50,HeLa [7],0.0091 to 0.569 µM
COC(=O)c1sc(N/N=C(\C)c2cc3cc(Cl)ccc3oc2=O)nc1C,IC50,HeLa [7],0.0091 to 0.569 µM
Cc1ccc(NC(=O)Nc2ccc(Cc3c(C)c4cc(C(C)(C)C)c(O)cc4oc3=O)cn2)cc1,IC50,MCF7 [8],1.66 to 9.27 µM
same,IC50,A549 [9],1.66 to 9.27 µM
same,IC50,[10],< 10 µM
same,IC50,HeLa [11],1.66 to 9.27 µM
same,IC50,K562 [12],1.66 to 9.27 µM
O=c1oc2ccccc2cc1-c1nnc2n1N=C(c1ccc(Cl)c(Cl)c1)CS2,IC50,BHK-21,1.39 µM
same,IC50,NCI-H157,1.73 µM
Cc1c(Cc2ccc(NC(=O)Nc3ccc(Br)cc3)nc2)c(=O)oc2cc(O)c(C(C)(C)C)cc12,IC50,MCF7 [8],1.66 to 9.27 µM
same,IC50,A549 [9],1.66 to 9.27 µM
same,IC50,[10],< 10 µM
same,IC50,HeLa [11],1.66 to 9.27 µM
same,IC50,K562 [12],1.66 to 9.27 µM
Cc1cc(=O)oc2cc(OCCOCCN3C(=O)/C(=N\O)c4cc(Cl)ccc43)ccc12,IC50,MCF7 [1],10.3 to 50 µM
same,IC50,A549 [2],10.3 to 50 µM
same,IC50,[3],10.3 to 50 µM
same,IC50,DU-145,10.3 to 50 µM
same,IC50,HeLa [4],10.3 to 50 µM
same,IC50,HepG2 [5],10.3 to 50 µM
same,IC50,SK-OV-3,10.3 to 50 µM
COc1ccc(/C(C)=N/Nc2ncc(C(=O)c3cc4ccccc4oc3=O)s2)cc1,EC50,HepG2 [6],3.7 to 9.54 µg/mL
same,EC50,DLD-1,3.7 to 9.54 µg/mL
CCOC(=O)c1sc(N/N=C(\C)c2cc3cc(Br)ccc3oc2=O)nc1C,IC50,HeLa [7],0.0091 to 0.569 µM
O=c1oc2ccccc2cc1-c1nnc2n1N=C(c1ccc(-c3ccccc3)cc1)CS2,IC50,BHK-21,1.01 to 5.72 µM
same,IC50,NCI-H157,1.01 to 5.72 µM
COc1ccc(/N=c2\scc(-c3cc4ccccc4oc3=O)n2-n2c(C)nn(-c3ccc(C)cc3)c2=O)cc1,IC50,K562 [13],0.16 to 1.12 µg/mL
same,IC50,MDA-MB-231,0.16 to 1.12 µg/mL
same,IC50,HeLa [14],0.16 to 1.12 µg/mL
same,IC50,A549 [15],0.16 to 1.12 µg/mL
CCOC(=O)c1sc(N/N=C(\C)c2cc3ccccc3oc2=O)nc1C,IC50,HeLa [7],0.0091 to 0.569 µM
COc1ccc(/N=c2\scc(-c3cc4ccccc4oc3=O)n2-n2c(C)nn(-c3ccc(Br)cc3)c2=O)cc1,IC50,K562 [13],0.16 to 1.12 µg/mL
same,IC50,MDA-MB-231,0.16 to 1.12 µg/mL
same,IC50,HeLa [14],0.16 to 1.12 µg/mL
same,IC50,A549 [15],0.16 to 1.12 µg/mL
Cc1c(Cc2ccc(NC(=O)Nc3ccccc3Cl)nc2)c(=O)oc2cc(O)c(C(C)(C)C)cc12,IC50,MCF7 [8],1.66 to 9.27 µM
same,IC50,A549 [9],1.66 to 9.27 µM
same,IC50,[10],< 10 µM
same,IC50,HeLa [11],1.66 to 9.27 µM
same,IC50,K562 [12],1.66 to 9.27 µM
COc1ccc(C2=Nn3c(nnc3-c3cc4ccccc4oc3=O)SC2)cc1,IC50,BHK-21,1.01 to 5.72 µM
same,IC50,NCI-H157,1.01 to 5.72 µM
